According to PubChem BioAssay (NCI):
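Test compounds were applied to cells in 96-well plates for 48 hours at 5 doses. TGI denotes the concentration required for complete inhibition of growth.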

Key:
Assay in all cases: DTP human tumour cell line panel, 48 h
CAKI-1 renal = test system: CAKI-1 renal
SK-MEL-5 melanoma = test system: SK-MEL-5 melanoma
U251 CNS = test system: U251 CNS
MDA-MB-435 = test system: MDA-MB-435
K-562 leukemia = test system: K-562 leukemia
A498 renal = test system: A498 renal
786-0 renal = test system: 786-0 renal
HT29 colon = test system: HT29 colon
COLO 205 colon = test system: COLO 205 colon
HCT-116 colon = test system: HCT-116 colon
DU-145 prostate = test system: DU-145 prostate
EKVX NSCLC = test system: EKVX NSCLC
NCI-H226 lung = test system: NCI-H226 lung
SK-MEL-28 melanoma = test system: SK-MEL-28 melanoma
UACC-257 melanoma = test system: UACC-257 melanoma
UO-31 renal = test system: UO-31 renal
T-47D breast = test system: T-47D breast
SN12C renal = test system: SN12C renal
CCRF-CEM leukemia = test system: CCRF-CEM leukemia
LOX IMVI melanoma = test system: LOX IMVI melanoma

SMILES | TGI (CAKI-1 renal) [µM] | TGI (SK-MEL-5 melanoma) [µM] | TGI (U251 CNS) [µM] | TGI (MDA-MB-435) [µM] | TGI (K-562 leukemia) [µM] | TGI (A498 renal) [µM] | TGI (786-0 renal) [µM] | TGI (HT29 colon) [µM] | TGI (COLO 205 colon) [µM] | TGI (HCT-116 colon) [µM] | TGI (DU-145 prostate) [µM] | TGI (EKVX NSCLC) [µM] | TGI (NCI-H226 lung) [µM] | TGI (SK-MEL-28 melanoma) [µM] | TGI (UACC-257 melanoma) [µM] | TGI (UO-31 renal) [µM] | TGI (T-47D breast) [µM] | TGI (SN12C renal) [µM] | TGI (CCRF-CEM leukemia) [µM] | TGI (LOX IMVI melanoma) [µM]
c1ccc(C2=Nc3cccc4cccc(c34)N2)cc1 | > 94.6 | > 100 | > 100 | > 85.8 | > 72.9 | > 100 | > 61.8 | > 100 | 40.9 | 50.8 | > 100 | > 100 | > 100 | > 100 | > 100 | > 56.1 | 21.9 | > 100 | 28.7 | 60
COc1cccc2cc(C(=O)Nc3ccccn3)c(=N)oc12 | > 100 | > 100 | > 100 | > 100 | > 100 | > 100 | > 100 | > 100 | > 100 | > 100 | > 100 | > 100 | > 100 | > 100 | > 100 | > 100 | > 100 | > 100 | > 100 | > 100
O=[N+]([O-])c1nccn1CCCNCCCn1ccnc1[N+](=O)[O-] | > 100 | > 100 | > 100 | > 100 | > 100 | > 100 | > 100 | > 100 | > 100 | > 100 | > 100 | > 100 | > 100 | > 100 | > 100 | > 100 | > 100 | > 100 | > 100 | > 100
COC1(CC[C@H](C)COC2OC(CO)C(O)C(O)C2O)O[C@H]2C[C@H]3[C@@H]4CC=C5C[C@@H](OC6OC(CO)C(O)C(OC7OC(CO)C(O)C(O)C7O)C6OC6OC(C)C(O)C(O)C6O)CC[C@]5(C)[C@H]4CC[C@]3(C)[C@H]2[C@@H]1C (stereo not given in full) | 10.4 | 16.9 | 4.02 | 4.24 | > 47.9 | 34.5 | 5.29 | > 21.8 | 16.2 | > 32.4 | 4.29 | > 51 | 18.6 | 6.74 | 22 | 4.36 | 9.68 | > 31.1 | > 32.9 | 6.06
COc1ccc2c(CCNS(=O)(=O)c3ccccc3)c(C(C)=O)[nH]c2c1 | > 100 | > 68.1 | > 100 | > 75.6 | > 100 | > 100 | > 100 | > 100 | > 100 | > 100 | > 100 | > 100 | > 100 | > 100 | > 57.1 | > 100 | > 86.8 | > 100 | > 100 | > 100
O=S(=O)(OI(O)CC(F)(F)F)C(F)(F)F | > 100 | > 100 | > 100 | > 100 | > 100 | > 100 | > 100 | > 100 | > 100 | > 100 | > 100 | > 100 | > 100 | > 100 | > 100 | > 100 | > 100 | > 100 | > 100 | > 100
COc1ccc2c(-c3ccc(O)cc3)c(Oc3ccc(Cl)cc3)c(=O)oc2c1 | 10.2 | 10.4 | 20.1 | 25.7 | > 57.8 | 22.5 | > 35.1 | > 38.1 | > 36.5 | > 33.6 | 24.7 | 12.5 | > 43.3 | 23.1 | 41 | 13.6 | > 100 | 19.2 | > 100 | > 44.9
CC1OC(O[C@H]2CC[C@]3(C=O)[C@H]4CC[C@]5(C)[C@H](C6=CC(=O)OC6)CC[C@]5(O)[C@@H]4C=C[C@]3(O)C2)CC(O)C1O (stereo not given in full) | 0.428 | 0.359 | 0.694 | 0.701 | 9.01 | 0.611 | 0.296 | 1.5 | 1.91 | 0.349 | 0.442 | 0.611 | 1.33 | 1.7 | 1.82 | 0.546 | 1.27 | 0.464 | 0.82 | 0.652
CC(=O)Nc1ccc2cc3[nH]c4cc(NC(C)=O)ccc4c3nc2c1 | > 100 | > 100 | > 100 | > 100 | > 100 | > 100 | > 100 | > 100 | > 100 | > 100 | > 100 | > 100 | > 100 | > 100 | > 100 | > 100 | > 100 | > 100 | > 100 | > 100
Cc1cc2c(cc1C)C(=O)/C(=N/Nc1ccc(F)cc1)CCO2 | > 100 | > 100 | > 100 | > 100 | > 100 | > 100 | > 100 | > 100 | > 100 | > 100 | > 100 | > 100 | > 100 | > 100 | > 100 | > 100 | > 100 | > 100 | > 100 | > 100
COc1ccc(Nc2nc3ccccc3nc2C(=O)O)cc1OC | > 100 | > 100 | > 100 | > 100 | > 100 | 75.1 | > 100 | > 100 | > 100 | > 100 | > 100 | > 100 | > 100 | > 100 | > 100 | 97.8 | > 100 | > 100 | > 100 | > 100
Cc1ccc(C)n1-n1c(-c2ccccc2)n[nH]c1=O | > 100 | > 100 | > 100 | 53.6 | > 100 | > 100 | > 100 | > 100 | > 100 | > 100 | > 100 | > 100 | > 100 | > 100 | > 100 | > 100 | > 100 | > 100 | > 100 | > 100
O=c1[nH]c(=O)n(C/C=C/CBr)nc1Br | 24.9 | 25.9 | 21.8 | 27.2 | 47.7 | 26.3 | 26.3 | 26.1 | 27.8 | 26.3 | > 100 | 28.8 | 27.8 | 28.2 | 24.9 | 32.5 | 28.2 | 28.1 | 30.7 | 5.78
CCC1=NC(C(F)(F)F)(C(F)(F)F)N=C(/N=C(/N)N(C)C(C(C)C)P(=O)(OC(C)C)OC(C)C)O1 (stereo not given) | > 100 | > 100 | > 100 | > 100 | > 100 | > 100 | > 100 | > 100 | > 100 | > 100 | > 100 | > 100 | > 100 | > 100 | > 100 | > 100 | > 100 | > 100 | > 100 | > 100
C[C@]12CC/C(=N\OCCN3CCCCC3)C=C1CCC1C2CC[C@@]2(C)C1CC[C@]2(C)O (stereo not given in full) | 23.7 | 32.4 | 26.6 | 6.71 | 17.9 | 15.4 | 17.3 | 10.2 | 20.9 | 21.3 | 44.8 | 44.6 | 14.2 | 30.4 | 18.9 | 23.2 | 97.2 | 33.5 | 11.3 | 15.7
Oc1ccc(-c2cn3cc(C(F)(F)F)ccc3n2)cc1 | > 100 | > 100 | > 100 | > 100 | > 100 | > 100 | > 100 | > 100 | > 100 | > 100 | > 100 | > 100 | > 100 | > 100 | > 100 | > 100 | 60.7 | > 100 | > 100 | > 100
O=C(CCOS(=O)(=O)CF)N1CCN(C(=O)CCOS(=O)(=O)CF)CC1 | > 100 | > 100 | > 100 | > 100 | > 100 | > 100 | > 100 | > 100 | > 100 | > 100 | > 100 | > 100 | > 100 | > 100 | > 100 | > 100 | > 100 | > 100 | > 87.9 | > 100
CC(NC(NC(C)C12CC3CC(CC(C3)C1)C2)=C(C(Cl)=C(Cl)Cl)[N+](=O)[O-])C12CC3CC(CC(C3)C1)C2 (stereo not given) | > 100 | 36.3 | 12.6 | > 100 | > 40 | > 100 | > 100 | 18.1 | 22.6 | 40 | > 100 | > 89.4 | > 61.7 | > 75.5 | > 54.6 | > 100 | > 100 | 23.2 | 4.64 | 21.5
O=C1C(Cl)=C(N2CCN(c3ccccn3)CC2)C(=O)c2ncccc21 | 4.01 | 4.22 | 15.2 | 3.17 | 5.78 | 23.8 | 3.12 | 9.93 | 3.31 | 3.14 | 24.1 | 24.4 | 18.2 | 4.38 | 3.24 | 3.3 | 3.16 | 7 | 3.11 | 3.59
